Results on eleven compounds are retold here after patent US12054466B2, “Compounds for the treatment of clostridium difficile infection” (University of Notre Dame du Lac, priority 2016, dated 2024).

One may read the MIC as the least concentration at which growth counts as inhibited.

Assay [1] deals with C. difficile. Put plainly: MIC against C. difficile (strain not named; 14 strains overall). Particulars: for C. difficile MIC: strain not named. Type of assay: cell-based, Clostridium difficile.
For assay [2], the system named is C. difficile BAA-1812. Put plainly: MIC, broth microdilution. Type of assay: cell-based. Particulars: Clostridioides difficile, BAA1812, C. difficile BAA-1812. On the technique in general: In broth dilution the organism is exposed to a series of concentrations in liquid medium.
Assay [3] has as its system Lactobacillus reuteri HM-102. Put plainly: MIC against common gut bacteria. Type of assay: cell-based. Particulars: Limosilactobacillus reuteri, HM102; Lactobacillus reuteri HM-102; read-out: MIC.
Assay [4] has as its system C. difficile ATCC43598. Put plainly: MIC, broth microdilution. It counts as cell-based. Particulars: Clostridioides difficile, C. difficile ATCC43598.
Assay [5] deals with Lactobacillus gasseri HM-644. Put plainly: MIC against common gut bacteria. It counts as cell-based. Particulars: HM644; Lactobacillus gasseri HM-644; read-out: MIC.
The subject of assay [6] is C. difficile. Particulars: cited from earlier work.
Assay [7] deals with Bacteroides fragilis. Put plainly: MIC against common gut bacteria. Particulars: read-out: MIC. Type of assay: cell-based.
The test system of assay [8] is C. difficile infection. Particulars: patients treated for CDI; cited from earlier work.
The subject of assay [9] is Fusobacterium nucleatum HM-992. Put plainly: MIC against common gut bacteria. It counts as cell-based. Particulars: HM992; Fusobacterium nucleatum HM-992; read-out: MIC.
Assay [10] concerns Bacteroides vulgatus. Put plainly: MIC against common gut bacteria. Type of assay: cell-based. Particulars: Phocaeicola vulgatus; Bacteroides vulgatus; read-out: MIC.
In assay [11] the test system is Bifidobacterium longum HM-846. Put plainly: MIC against common gut bacteria. It counts as cell-based. Particulars: HM846; Bifidobacterium longum HM-846; read-out: MIC.
Assay [12] relates to Corynebacterium sp. HM-784. Put plainly: MIC against common gut bacteria. Particulars: SP.HM784; Corynebacterium sp. HM-784; incubated aerobically; read-out: MIC. It counts as cell-based. Here is the method:
Minimally-inhibitory concentrations. MICs for C. difficile strains and the common gut bacteria were determined using broth microdilution techniques as reported earlier using brucella broth supplemented with hemin and vitamin K or supplemented BHIS broth (Babakhani et al., J Antimicrob Chemother 2013, 68(3), 515). Lactobacillus MRS broth was used for lactobacillus strains. […] All incubations unless specified otherwise were carried out at 24 or 48 h at 37° C. in an anaerobic chamber (Whitley DG250 workstation, Microbiology International, Frederick, MD). Corynebacterium and lactobacillus species were incubated aerobically.

Assay [13] has as its system Bacteroides fragilis HM-709. Put plainly: MIC against common gut bacteria. Type of assay: cell-based. Particulars: HM709; Bacteroides fragilis HM-709; read-out: MIC.
The test system of assay [14] is C. difficile ATCC43255. Put plainly: MIC, broth microdilution. Type of assay: cell-based. Particulars: Clostridioides difficile.
In assay [15] the test system is C. difficile BAA-1870. Put plainly: MIC, broth microdilution. Type of assay: cell-based. Particulars: Clostridioides difficile, BAA1870, C. difficile BAA-1870 (NAP1, ribotype 27).
In assay [16] the test system is Bacteroides eggerthii. Put plainly: MIC against common gut bacteria. It counts as cell-based. Particulars: read-out: MIC.
In assay [17] the test system is Veillonella sp. HM-49. Put plainly: MIC against common gut bacteria. Particulars: SP.HM49; Veillonella sp. HM-49; read-out: MIC. Type of assay: cell-based.
For assay [18], the system named is Bacteroides caccae. Put plainly: MIC against common gut bacteria. Particulars: read-out: MIC. Type of assay: cell-based.
Assay [19] relates to C. difficile BAA-1801. Put plainly: MIC, broth microdilution. It counts as cell-based. Particulars: Clostridioides difficile, BAA1801, C. difficile BAA-1801 (nontoxigenic).
In assay [20] the test system is C. difficile BAA-1803. Put plainly: MIC, broth microdilution. It counts as cell-based. Particulars: Clostridioides difficile, BAA1803, C. difficile BAA-1803 (NAP1, ribotype 027).
In assay [21] the test system is C. difficile BAA-1804. Put plainly: MIC, broth microdilution. Type of assay: cell-based. Particulars: Clostridioides difficile, BAA1804, C. difficile BAA-1804.
In assay [22] the test system is Bacteroides ovatus. Put plainly: MIC against common gut bacteria. Type of assay: cell-based. Particulars: read-out: MIC.
Assay [23] has as its system DNA, protein and peptidoglycan synthesis in C. difficile ATCC 43255. Put plainly: Macromolecular synthesis assays. It counts as cell-based. Particulars: N-acetyl-d-[6-3H]-glucosamine incorporation; ½ MIC; 120 min. From the text: Macromolecular synthesis assays. The method of Mathur et al (J Antimicrob Chemother 2011, 66(5), 1087) was used with a few modifications. [2,8-^3H]-adenine (40 Ci/mmol), 1-[3,4,5-^3H(N)]-leucine (120 Ci/mmol), and N-acetyl-d-[6-^3H]-glucosamine (30 Ci/mmol) were purchased from Perkin Elmer (Waltham, MA). Ciproflaxin, linezolid, and oxacillin, were used as positive controls for DNA, protein, and peptidoglycan, respectively. Ciprofloxacin and oxacillin were purchased from Sigma-Aldrich (St. Louis, MO), linezolid was obtained from AmplaChem Inc. (Carmel, IN). […] Aliquots were taken every 30 min for radioactive counting and viability. Optimal incubation times were 60 min for DNA, 180 min for protein, and 120 min for peptidoglycan.

Where [24] appears, read: ATCC43255, FIG. 3 legend, C. difficile, read-out: MIC of positive controls of the macromolecular synthesis assays.

In brackets after ≈: the same amount, converted by molar mass. Read-outs that look alike come from different tables or passages of the source.

In turn, `NCc1ccc(-c2nc(-c3ccc(Oc4ccc(C(F)(F)F)cc4)cc3)no2)cc1` [xxi] yielded a C. difficile MIC in assay [1] of 4 mg/L.
Consider `Cc1ncc([N+](=O)[O-])n1CCO` [metronidazole], for which the MIC in [2] (24 h, read-out: MIC at 24 h) was 0.25 mg/L (≈ 1.46 µM); in assay [2] (48 h, read-out: MIC at 48 h), 0.25 mg/L (≈ 1.46 µM); in assay [3], > 32 mg/L; in [4] (24 h, read-out: MIC at 24 h), 0.125 mg/L (≈ 0.73 µM); in [4] (48 h, read-out: MIC at 48 h), 0.125 mg/L (≈ 0.73 µM); in assay [5] it was > 32 mg/L. In addition, the MIC in assay [7] was 1 mg/L (≈ 5.84 µM); in assay [9] it was 2 mg/L (≈ 11.7 µM); in assay [10], 2 mg/L (≈ 11.7 µM); in assay [11] it was 0.5 mg/L (≈ 2.92 µM); in assay [12] it was > 32 mg/L; in assay [13] it was 0.5 mg/L (≈ 2.92 µM). Moreover, the MIC stood at 0.01 mg/L (≈ 0.0584 µM) in assay [14] (C. difficile ATCC43255, 24 h, read-out: MIC at 24 h); 0.01 mg/L (≈ 0.0584 µM) in [14] (C. difficile ATCC43255, 48 h, read-out: MIC at 48 h); 0.25 mg/L (≈ 1.46 µM) in assay [15] (24 h, read-out: MIC at 24 h); 0.5 mg/L (≈ 2.92 µM) in assay [15] (48 h, read-out: MIC at 48 h); 2 mg/L (≈ 11.7 µM) in [16]; 2 mg/L (≈ 11.7 µM) in assay [17]. Further, the MIC came out at 2 mg/L (≈ 11.7 µM) in [18]; 0.125 mg/L (≈ 0.73 µM) in assay [19] (24 h, read-out: MIC at 24 h); 0.125 mg/L (≈ 0.73 µM) in [19] (48 h, read-out: MIC at 48 h); 0.25 mg/L (≈ 1.46 µM) in assay [20] (24 h, read-out: MIC at 24 h); 0.5 mg/L (≈ 2.92 µM) in assay [20] (48 h, read-out: MIC at 48 h); 0.25 mg/L (≈ 1.46 µM) in assay [21] (24 h, read-out: MIC at 24 h). In addition, the MIC in assay [21] (48 h, read-out: MIC at 48 h) worked out at 0.25 mg/L (≈ 1.46 µM); in assay [22], 2 mg/L (≈ 11.7 µM). Also, the “Activity against C. difficile spores” value in [6] (at 8× or 80× MIC) was “not active”. Further, the “Inhibition of toxin production” value in assay [6] (at 8×MIC) is “Neither vancomycin nor metronidazole inhibit toxin production”. For the same compound, the “Patients with recurrence of the infection” value in assay [8] is “About 25%”. In addition, the “MIC range in 14 C. difficile strains” value in [1] (14 C. difficile strains) was 0.1 to 0.25 mg/L.
Turning to `Oc1ccc(-c2nc(-c3ccc(OC4CC4)cc3)no2)cc1` [vii], the C. difficile MIC in assay [1] amounted to 8 mg/L.
In the case of `Cc1onc(-c2ccccc2)c1C(=O)N[C@@H]1C(=O)N2[C@@H]1SC(C)(C)[C@@H]2C(=O)O` [oxacillin], the “Inhibition of peptidoglycan synthesis” value in assay [23] amounted to 54.1±13%. In assay [14] (setting [24]), the minimum inhibitory concentration (MIC) came to 8 mg/L.
Take `Oc1ccc(-c2nc(-c3ccc(OC4CCC=C4Br)cc3)no2)cc1` (centres unmarked) [xi]: the C. difficile MIC in assay [1] stood at 2 mg/L.
Still for that read-out and setting: with `Oc1ccc(-c2nc(-c3ccc(OC4CCCC4)cc3)no2)cc1` [xxii] the figure was 2 mg/L.
With `CC(=O)NC[C@H]1CN(c2ccc(N3CCOCC3)c(F)c2)C(=O)O1` [linezolid], the MIC in assay [14] (setting [24]) worked out at 2 mg/L.
Compound `Oc1ccc(-c2nc(-c3ccc(OC4CCCC=C4Br)cc3)no2)cc1` (centres unmarked) [ix] gave a C. difficile MIC in assay [1] of 2 mg/L.
Still for that read-out and setting: in the case of `Oc1ccc(-c2nc(-c3ccc(OC(F)(F)F)cc3)no2)cc1` [xvii] it was 4 mg/L.
`O=C(O)c1cn(C2CC2)c2cc(N3CCNCC3)c(F)cc2c1=O` [ciprofloxacin]: the MIC in assay [14] (setting [24]) is 8 mg/L.
Take `CCCCCc1ccc(/C(C)=C/C(=O)N[C@H](Cc2c[nH]c3ccccc23)C(=O)N[C@H](CC(N)=O)C(=O)N[C@@H](CC(=O)O)C(=O)N[C@@H]2C(=O)NCC(=O)N[C@@H](CCCN)C(=O)N[C@@H](CC(=O)O)C(=O)N[C@H](C)C(=O)N[C@@H](CC(=O)O)C(=O)NCC(=O)N[C@H](CO)C(=O)N[C@@H]([C@H](C)CC(=O)O)C(=O)N[C@@H](CC(=O)c3ccccc3N)C(=O)O[C@@H]2C)cc1` [surotomycin]: in assay [6] ([…]), the “Inhibition of toxin production” value is “nor inhibits toxin production”.
